Patent US12577231B2, “Androgen receptor PROTACS” (GlaxoSmithKline Intellectual Property Development Limited, priority 2023, dated 2026)
Residue numbers refer to the chain shown, from its start. Read-outs that look alike come from different tables or passages of the source.

Experiments:
Androgen receptor F877L = molecular target: T1, Androgen receptor F877L (Homo sapiens, UniProt P10275, F877L); assay: Degradation of overexpressed Androgen Receptor in A549 cells (HiBiT), F877L; assay type: cell-based; conditions: A549 cells overexpressing AR F877L, cycloheximide, 24 hours
T1 construct: expressed in transfected cells; host or cells: A549, transduced, puromycin selected
T1 sequence (P10275 1-920 F877L): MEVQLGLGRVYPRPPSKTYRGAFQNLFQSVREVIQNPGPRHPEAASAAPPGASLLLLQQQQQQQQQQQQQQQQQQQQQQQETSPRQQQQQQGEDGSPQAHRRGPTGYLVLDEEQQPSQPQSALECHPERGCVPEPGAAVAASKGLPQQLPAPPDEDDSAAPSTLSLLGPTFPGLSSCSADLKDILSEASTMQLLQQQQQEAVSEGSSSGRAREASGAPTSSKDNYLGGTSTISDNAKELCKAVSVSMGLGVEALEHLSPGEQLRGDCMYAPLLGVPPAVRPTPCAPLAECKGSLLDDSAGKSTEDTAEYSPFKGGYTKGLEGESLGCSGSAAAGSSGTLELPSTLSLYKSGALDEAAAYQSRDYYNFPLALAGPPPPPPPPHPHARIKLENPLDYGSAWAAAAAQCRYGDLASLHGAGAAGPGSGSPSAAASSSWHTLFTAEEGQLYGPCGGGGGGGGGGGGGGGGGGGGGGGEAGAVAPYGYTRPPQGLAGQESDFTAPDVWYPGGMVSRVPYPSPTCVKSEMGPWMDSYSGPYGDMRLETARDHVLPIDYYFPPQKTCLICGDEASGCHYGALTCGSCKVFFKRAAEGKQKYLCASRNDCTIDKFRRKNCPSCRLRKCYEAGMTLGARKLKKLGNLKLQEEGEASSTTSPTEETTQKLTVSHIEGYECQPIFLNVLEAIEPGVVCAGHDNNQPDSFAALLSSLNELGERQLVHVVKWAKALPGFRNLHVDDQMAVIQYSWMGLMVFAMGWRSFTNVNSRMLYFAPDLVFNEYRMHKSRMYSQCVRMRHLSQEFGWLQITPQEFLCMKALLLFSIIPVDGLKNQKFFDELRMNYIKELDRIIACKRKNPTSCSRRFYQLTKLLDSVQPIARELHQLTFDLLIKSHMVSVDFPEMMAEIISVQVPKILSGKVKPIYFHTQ
Protocol: (§1) A549 cells were transduced to express wild type androgen receptor and Androgen receptor containing the following mutations (L702H, H875Y W742C W742L F877L, T878A and T878A/H875Y) with HiBiT tags. Transduced cells following puromycin selection were maintained in a humidified incubator (at 37° C. and 5% CO2 in the DMEM medium supplemented with 1% (v/v) Pen/Strep, 1% (v/v) Glutamax and 10% (v/v) FBS. A549 cells expressing each AR construct were detached from plate and counted. Cell suspensions at density 0.2 million per mL were prepared. Cell suspension was supplemented with 100 μg/mL of cycloheximide to block protein synthesis. Cells were preincubated with cycloheximide for 1 hr before seeding. Cells were seeded onto 384-well plate at density of 5,000 in 25 μL per well. A two fold serial dilution of test compounds, starting from 1 μM (row A) in 2-fold serial dilution series across the column using Tecan D300e dispenser. […]
(§2) Nano-Glo HiBiT Lytic reagent was prepared by adding LgBiT protein and Nano-Glo® substrate to lytic buffer pre-equilibrated at room temperature following manufacturer protocol (https://www.promega.co.uk/resources/protocols/technical-manuals/101/nanoglo-luciferase-assay-system-protocol). […] The plates were then centrifuged (100×G, 1 min) and incubated on shaker for 10 mins before taking readings on Pherastar Luminescence microplate reader. […]

[1] = molecular target: T2, Androgen receptor T878A/H875Y (Homo sapiens, UniProt P10275, H875Y/T878A); assay: Degradation of overexpressed Androgen Receptor in A549 cells (HiBiT), T878A/H875Y; assay type: cell-based; conditions: A549 cells overexpressing AR T878A.H875Y, cycloheximide, 24 hours
T2 construct: expressed in transfected cells; host or cells: A549, transduced, puromycin selected
T2 sequence (P10275 1-920 H875Y/T878A): T1 sequence (P10275 1-920 F877L) with H875Y, L877F, T878A
Protocol: as §1, §2

[2] = male, Wistar Han, rat, in vivo, po
Protocol: (§3) Systemic exposure of various forms of N-((1r,3r)-3-(4-cyano-3-methoxyphenoxy)-2,2,4,4-tetramethylcyclobutyl)-4-(4-((4-(4-(2,4-dioxotetrahydropyrimidin-1(2H)-yl)-1H-pyrazolo[4,3-c]pyridin-1-yl)piperidin-1-yl)methyl)piperidin-1-yl)-3-fluorobenzamide were assessed following oral administration of 30 mg/kg of a suspension formulation (1% methylcellulose (aq)) or following oral administration of 35 mg/kg of a suspension formulation (100% PEG400) in the male Wistar Han rat. […] The sampling period was 72 hours, and the data is reported in the attached table as mean±SD (n=3).

in vivo = conditions: male, Wistar Han, rat, po
Protocol: as §3

Summary pXC50 (Androgen receptor F877L): 8.84 | Summary pXC50 [1]: 8.57 | Dose Normalised AUC0-t ([2]; 30 mg/kg): 240 ± 38 (ng · h/mL)/(mg/kg | Dose Normalised AUC0-t ([2]; 35 mg/kg): 744 ± 66 (ng · h/mL)/(mg/kg | AUC0-t (in vivo; 30 mg/kg): 7220 ± 1220 ng·h/mL | Cmax (in vivo; 30 mg/kg): 318 ± 50 ng/mL | Tmax (in vivo; 30 mg/kg): 8 h | AUC0-t (in vivo; 35 mg/kg): 26200 ± 1750 ng·h/mL | Cmax (in vivo; 35 mg/kg): 849 ± 98 ng/mL | Tmax (in vivo; 35 mg/kg): 8.7 ± 3 h
Compound: COc1cc(O[C@H]2C(C)(C)[C@H](NC(=O)c3ccc(N4CCC(CN5CCC(n6ncc7c(N8CCC(=O)NC8=O)nccc76)CC5)CC4)c(F)c3)C2(C)C)ccc1C#N [Example 20, N-((1r,3r)-3-(4-Cyano-3-methoxyphenoxy)-2,2,4,4-tetramethylcyclobutyl)-4-(4-((4-(4-(2,4-dioxotetrahydropyrimidin-1(2H)-yl)-1H-pyrazolo[4,3-c]pyridin-1-yl)piperidin-1-yl)methyl)piperidin-1-yl)-3-fluorobenzamide]
